In patent US20130178835A1, “IDENTIFYING SYNTHETIC LIGANDS THAT BIND T-CELLS FROM PATIENTS HAVING AN AUTOIMMUNE DISEASE” (The Board of Regents of the University of Texas System, priority 2009, published 2013):
“Also recorded” adds a separate entry of the source. Non-standard residues stand in square brackets, D forms with d. Residues, ends and D or L forms follow the SMILES beside them. Nrpe = C[C@@H](NCC(=O)O)c1ccccc1; NFurfurylGly = O=C(O)CNCc1ccco1; Nleu = CC(C)CNCC(=O)O; Nlys = NCCCCNCC(=O)O

Tests used:
[1] = test system: Vα2.3/Vβ8.2 MBP Acl-11 TCR transgenic T cells; test: Flow cytometry binding assay (periodate cross-linking, streptavidin-APC MFI); set-up: species or system mouse; settings: biotin-DOPA-AG12A 1-500 μM, cross-linked with periodate; MFI fitted with Graphpad Prism; estimated
Description: Following isolation of CD4+ T cells from TCR transgenic mice and WT controls, cells were washed and resuspended in 0.1% PBS/BSA (FACS buffer). The cells were incubated with increasing concentrations (1 μM, 10 μM, 100 μM, 250 μM, or 500 μM) of either the biotin-DOPA-AG12A peptoid or a biotin-DOPA-control peptoid and incubated for 30 min at 37° C. 5 mM sodium periodate was added to the cells briefly to cross-link the peptoid to the target receptor. This reaction was quenched with DTT and the cells were washed twice with 0.1% PBS/BSA. Fc block (BD Biosciences) was added to the cells for 15 min on ice in order to reduce non-specific binding to Fc receptors. The cells were stained with 1 μg anti CD4-PerCp Cy5.5 antibody and 0.02 μg streptavidin-APC antibody (BD Biosciences) for 15 minutes on ice. The staining was followed by 2 washes with 0.1% PBS/BSA and the cells were run on a FACS Calibur flow cytometer to assess peptoid binding. The data were analyzed using Flowjo software (Treestar) to determine the mean fluorescent intensity and are shown as histograms. The mean fluorescent intensities (MFI) were plotted using Graphpad Prism software to determine an estimated Kd value and are depicted as a line graph.

[2] = test system: CD4+ T cells from MBP Acl-11 TCR transgenic mice; test: Binding of quantum dot-labeled T cells to peptoid resynthesized on beads; set-up: species or system mouse; settings: Tentagel beads, red quantum dot-labeled T cells
Excerpt: Approximately 300,000 beads were swelled in DMF, washed with PBS, and equilibrated in complete RPMI 1640 media containing 3% BSA. CD4+ T cells isolated from either EAE or wild-type mice were resuspended in RPMI and labeled using quantum dots (Invitrogen) according to manufacturer's instructions. CD4+ T cells from EAE mice were labeled with Qtracker 655 (red) and CD4+ T cells from wild-type mice were labeled with Qtracker 565 (green). Labeled cells were mixed in a 1:1 ratio with a total of approximately 10×10^6 of each cell type. The cells were then incubated with the peptoid bead library overnight in a 37° C. incubator with 5% CO2 and gentle shaking. The beads were gently washed 2 times with RPMI media and were then visualized under a fluorescent microscope (Olympus BX-51) with excitation 340-380 nm using a DAPI filter (100×total magnification). Beads binding only to red labeled cells were selected manually using a 20 μl pipette. The “hit” beads were then washed, boiled with 1% SDS for 30 minutes and subjected to automated Edman sequencing.
(§1) To determine whether AG12A was binding to the autoreactive TCR, the inventors took advantage of the existence of transgenic mice, in which the vast majority of CD4+ T cells express the MBP Acl-11 specific TCR (Vα2.3/Vβ8.2 TCR) (Goverman et al., 1993). CD4+ T cells were isolated from these mice and tested for binding to AG12A. […]

[3] = test system: CD4+ T cells from B10.PL wild-type control mice; test: as above; set-up: species or system mouse; settings: Tentagel beads, red quantum dot-labeled T cells
Description: Approximately 300,000 beads were swelled in DMF, washed with PBS, and equilibrated in complete RPMI 1640 media containing 3% BSA. CD4+ T cells isolated from either EAE or wild-type mice were resuspended in RPMI and labeled using quantum dots (Invitrogen) according to manufacturer's instructions. […] Labeled cells were mixed in a 1:1 ratio with a total of approximately 10×10^6 of each cell type. The cells were then incubated with the peptoid bead library overnight in a 37° C. incubator with 5% CO2 and gentle shaking. The beads were gently washed 2 times with RPMI media and were then visualized under a fluorescent microscope (Olympus BX-51) with excitation 340-380 nm using a DAPI filter (100×total magnification). Beads binding only to red labeled cells were selected manually using a 20 μl pipette. The “hit” beads were then washed, boiled with 1% SDS for 30 minutes and subjected to automated Edman sequencing.
as §1, with “AG12A. This was done in several ways. First, AG12A was resynthesized on beads, as was a control peptoid not selected as a T cell ligand (FIG. 6).” for “AG12A.”

[4] = test system: B cells from B10.PL wild-type mice; test: CFSE proliferation assay; format: cell-based, mouse; settings: 1-500 μM peptoid, stimulated with LPS
Description: (§2) Following CD4+ T cell isolation, Vα2.3Vβ8.2 TCR transgenic T cells, B cells, or MOG-35-55 TCR transgenic T cells were labeled with CFSE (molecular probes) according to manufacturer's instructions. Briefly, cells were resuspended at a concentration of 1×10^6 per ml in PBS and incubated with 0.5 μM CFSE at 37° C. for 10 min. The staining was quenched with addition of 5 volumes of culture media containing 10% FBS. The cells were centrifuged, washed, and resuspended in complete RPMI 1640 media. The cells were then plated at 1×10^6 per ml. and incubated with increasing concentrations of either AG12A peptoid or a control peptoid (1 μM, 10 μM, 20 μM, 40 μM, 60 μM, 80 μM, 100 μM, 200 μM, or 500 μM) for 30 min at 37° C. Antigen presenting cells were isolated from spleens of WT B10.PL mice and 10 μg/ml of MBP Acl-11, MOG 35-55, or LPS were then added to the culture to stimulate the cells. The cells were left in culture for 5 days, stained with an anti-CD4-PerCp antibody (BD Biosciences), and run on the FACS Calibur flow cytometer to assess cell division. The data were analyzed using Flowjo software (Treestar) proliferation platform to determine percentage of dividing cells. The percent division was graphed using Graphpad Prism software and depicted as a line graph.

[5] = test system: CD4+ MBP Acl-11 specific murine TCR transgenic T cells; test: CFSE proliferation assay; format: cell-based, mouse; settings: 1-500 μM peptoid, MBP Acl-11 peptide 10 μg/ml and antigen presenting cells, 5 days
Description: as §2

[6] = test system: CD4+ T cells from MOG 35-55 TCR transgenic mice; test: CFSE proliferation assay; format: cell-based, mouse; settings: 1-500 μM peptoid, stimulated with MOG 35-55 peptide and antigen presenting cells
Description: as §2

CC(C)CN(CC(=O)N(CCCCN)CC(=O)N(CC(=O)N(CC(=O)N(CCCCN)CC(=O)N(CC(=O)N(CCCCN)CC(=O)N(CCCCN)CC(N)=O)CC(C)C)[C@H](C)c1ccccc1)Cc1ccco1)C(=O)CNCCCCN [AG12A] (H-[Nlys][Nleu][Nlys][NFurfurylGly][Nrpe][Nlys][Nleu][Nlys][Nlys]-NH2)
Kd [1]: ~40 µM
binding of T cells to peptoid displayed on beads [2]: bound; also recorded: bind to AG12A peptoid beads
binding of T cells to peptoid displayed on beads [3]: did not; also recorded: do not bind
inhibition of proliferation (percent division) [4]: nor did AG12A inhibit
inhibition of proliferation (percent division) [5]: inhibits proliferation
inhibition of proliferation (percent division) [6]: did not inhibit
